The source of these data is patent publication US20040116346A1, “Affinity small molecules for the EPO receptor” (priority 2002, published 2004).

In test [1] the test system is Mouse or human bone marrow cells. Kind of test: Formation of erythroid colonies (CFU-e, BFU-e) from bone marrow in methylcellulose. As to conditions: mouse and human bone marrow. Type of test: cell-based. How it is done:
Mouse or human bone marrow cells were stimulated in methylcellulose for 7 days (mouse) or 14 days (human) with non-peptide EPO-R modulators. Formation of erythroid colonies was observed. (See FIGS. 6 to 8)
(1) Dilute human bone marrow 1:1 with sterile PBS. (2) Slowly layer bone marrow into 50 ml tubes containing 20 ml of LSM Lymphocyte separation medium (ICN/Cappel—cat #50494). 50 ml bone marrow will yield 2 tubes. (3) Spin tubes at 2000 rpm for 30 minutes with brake off. (4) Slowly take out the middle layer using a 10 ml pipette and transfer into a new 50 ml tube. (5) Add PBS +0.5% BSA +5 mM EDTA to tube for washing. (6) Spin tube for 5 minutes at speed 4 with brake on. (7) Repeat wash step 2 more times. (8) After 3rd wash, resuspend pellet in SF Iscoves' MDM medium. (9) Count by diluting cells in 3% acetic acid. (10) Dilute cells to desired concentration (5×10^5 cells/ml) and seed onto methylcellulose.
(1) Tubes containing 3.0 ml of methylcellulose medium (Stemcell Technology, cat #H4230) supplemented with 50 ng/ml hSCF are prepared. (Alternatively the methylcellulose could be supplemented with 50 ng/ml hSCF, 20 ng/ml of hIL-3 and hIL-6). (2) Compounds or EPO of desired concentrations are added to the tubes. […] Colonies are scored on day twelve.
Bone marrow cells were isolated from mouse femurs. […] The colonies were scored on day seven. […]

The test system of the next test is CD34+cells. Kind of test: erythroid colony formation in methylcellulose, CD34+ cells. Type of test: cell-based. The note with it: colonies counted on day 14. The source says:
CD34+cells were isolated and seeded in the presence of compound. The colonies were counted on day 14.

Regarding `Cc1ccc(Cl)cc1Nc1nc2nc(C)c(NCC3CC3)cn2n1` [Compound E5], the “CFU-e formation compared with EPO” value in test [1] was “stimulate CFU-e formation to the same extent as EPO”. Besides, the “cooperation with EPO on erythroid colony formation” value with CD34+cells is on record as “cooperation”.
